We go through 23 compounds from EP2441755A1 (Almirall, S.A., priority 2010, dated 2012).

In assay [1] the target is T1, Recombinant human full-length Syk (Homo sapiens, UniProt P43405).
T1 construct: Recombinant human full-length Syk was supplied by Millipore; purchased Millipore
Put plainly: Syk enzyme assay - radioactive filtration kinase assay. Format: biochemical. Here is the method:
Syk Enzyme assay- Radioactive filtration kinase assay
Recombinant human full-length Syk was supplied by Millipore. The activity of Syk kinase was assessed using a radioactive filtration kinase assay. […] The reaction was initiated by the addition of 14.5 µl of 0.36 µCi [γ-^33P] ATP (10 mCi/ml, PerkinElmer). This was prepared in a half-area NBS plate (Corning) and allowed to stand at room temperature for 40 min. 15 µl of reaction mixture was transferred to a filter plate (Millipore) previously pre-wetted with a solution of 75 mM phosphoric acid. The reaction was terminated with the addition of 200 µl phosphoric acid. The filter plate was washed three times under vacuum on a vacuum manifold (Millipore cat# MSVMHTS00) at 8" Hg vacuum level with 200 µl phosphoric acid per wash. 30 µl Optiphase™ Supermix (PerkinElmer) was added to each test well and allowed to incubate for at least 1 h before counting. Radioactivity counting was performed in a Wallac MicroBeta®, and the tyrosine phosphorylation activity by Syk was calculated.

For a further assay, the system named is LAD2 cells. Kind of assay: LAD2 cells assay (degranulation, β-hexosaminidase release). Format: cell-based. The following applies: Homo sapiens. An excerpt: LAD2 is a human mast cell line depending on stem cell factor for its survival, maturation and differentiation. This mast cell line was established by the NIH from bone marrow aspirates from a patient with mast cell sarcoma. LAD2 cells resemble CD34+ - derived human mast cells as they have granules containing tryptase, histamine and β-hexosaminidase. They also express c-kit and FcεRI (Kirshenbaum, et al., Leukemia Research 27: 677-682, 2003).
Sensitization of LAD2 cells
Cells were sensitized (0.2x10^6 cells/ml) in its normal growth factor (Complete StemPro-34 SFM, Gibco 10639-011 containing StemPro-34 nutrient supplement (1/40); glutamine (2 mM) and supplemented with 100 ng/ml SCF) by adding 100 ng/ml of biotin-labeled IgE (USBiological) overnight (16-18 h, 37º, 5% CO2) in a humidified atmosphere (90%).
Compounds were prepared from a 10^-2M stock in 100% DMSO to give seven successive 1/3 dilutions in DMSO. From each concentration, 2 further 1/10 dilutions were prepared in release buffer (137 mM NaCl, 2.70 mM KCI, 0.4 mM NaH2PO4, 5.6 mM (D)-glucose, 1.8 mM CaCl2, 1.3 mM MgSO4, 0.025% BSA). Finally, 5 µl from each diluted concentration were transferred into the assay plate (flat 96-well Nunc). The final compound concentrations tested ranged from 1x10^-5M to […] with a final proportion of DMSO in the assay of 0.1 %. Control wells were treated with 0.1 % DMSO.
Sensitized LAD2 cells were centrifuged (300 g, 3 min, R.T.) and washed 2 times with release buffer. Cells were resuspended in release buffer and adjusted to a density of 0.2x10^6/ml. 45 µl of the adjusted cells were transfered to the assay plate (∼10,000cells/well) containg 5 µl of the final compound concentrations. LAD2 cells were incubated with the compound for 30 min (37 °C, 5% CO2 90% of humidity) and then activated with 125 ng/ml of streptavidin (Pierce 21125) for 30 min (37 °C, 5% CO2, 90% of humidity). After the activation, cells were centrifuged at 1200 g, 10 min, 12 °C and supernatats were removed and transfered to another well for determination of released β-hexosaminidase. Empty wells were filled with 50 µl of release buffer for determination of intracellular β-hexosaminidase. Cells were lysed with 2 cycles of freeze-thaw.
Cells were incubated for 90 minutes, 37 °C with 1 mM β-hexosaminidase substrate (p-nitrophenyl N-acetyl-D-glucosamide, in citric buffer, pH 4.5). Reaction was stopped with 0.4 M glycine solution (pH 10.0) and the plate is read immediately at 405 nm.

Where [2] appears, read: Syk 1nM final, poly-GT 100 µg/ml, [γ-33P] ATP, 40 min at room temperature, read-out: Syk IC50.
[3] abbreviates: 0.5 h, IgE-sensitized LAD2 cells, 30 min with compound, activated with 125 ng/ml streptavidin, released β-hexosaminidase, read-out: LAD2IC50.

Read-outs that look alike come from different tables or passages of the source.

For `O=C(C[C@H](Cc1ccccc1)C(=O)O)Nc1cc(Nc2cnccn2)nc(-c2ccnc(N3CCNCC3)c2)c1` [Example 98, (2S)-2-Benzyl-4-oxo-4-{[2'-piperazin-1-yl-6-(pyrazin-2-ylamino)-2,4'-bipyridin-4-yl]amino}butanoic acid], the IC50 in assay [1] (setting [2]) is 16 nM; with LAD2 cells (setting [3]), 82 nM.

`O=C(CCc1ccccc1)Nc1cc(Nc2cnccn2)nc(-c2ccnc(N3CCNCC3)c2)c1` [Example 82, 3-Phenyl-N-[2'-piperazin-1-yl-6-(pyrazin-2-ylamino)-2,4'-bipyridin-4-yl]propanamide]: the values for the IC50 (in assay [1] (setting [2]); with LAD2 cells (setting [3])) were 8 nM and 280 nM, respectively.

For the compound `Cc1ccnc(Nc2cccc(-c3ccnc(N4CCNCC4)c3)n2)c1` [Example 14, N-(4-Methylpyridin-2-yl)-2'-piperazin-1-yl-2,4'-bipyridin-6-amine], the IC50 in assay [1] was 14 nM; with LAD2 cells (setting [3]), 70 nM.

As to `O=C(O)C[C@H](Cc1ccccc1)NC(=O)c1cccc(C(=O)Nc2cc(Nc3cnccn3)nc(-c3ccnc(N4CCNCC4)c3)c2)c1` [Example 109, (3S)-4-Phenyl-3-{[3-({[2'-piperazin-1-yl-6-(pyrazin-2-ylamino)-2,4'-bipyridin-4-yl]amino}carbonyl)benzoyl]amino}butanoic acid], the IC50 in assay [1] (setting [2]) came out at 13 nM; in the assay on LAD2 cells (setting [3]) it was 100 nM.

For the compound `Cc1ccnc(Nc2cc3ccccc3c(-c3ccnc(N4CCNCC4)c3)n2)c1` [Example 52, N-(4-Methylpyridin-2-yl)-1-(2-piperazin-1-ylpyridin-4-yl)isoquinolin-3-amine], the IC50 was 18 nM in assay [1] (setting [2]) and 434 nM in the assay on LAD2 cells (setting [3]).

For the compound `Cc1cc(C(=O)Nc2cc(Nc3cnccn3)nc(-c3ccnc(N4CCNCC4)c3)c2)n(C)n1` [Example 83, 1,3-Dimethyl-N-[2'-piperazin-1-yl-6-(pyrazin-2-ylamino)-2,4'-bipyridin-4-yl]-1H-pyrazole-5-Carboxamide], the IC50 in assay [1] is 7 nM; in the assay on LAD2 cells (setting [3]) it was 170 nM.

In the case of `O=C(Nc1cc(Nc2cnccn2)nc(-c2ccnc(N3CCNCC3)c2)c1)c1cncnc1` [Example 95, N-[2'-Piperazin-1-yl-6-(pyrazin-2-ylamino)-2,4'-bipyridin-4-yl]pyrimidine-5-Carboxamide], the IC50 amounted to 9 nM in assay [1] and 320 nM with LAD2 cells (setting [3]).

For `NCCc1cccc(-c2cccc(Nc3cc(C(F)(F)F)ccn3)n2)c1` [Example 20, N-{6-[3-(2-Aminoethyl)phenyl]pyridin-2-yl}-4-(trifluoromethyl)pyridin-2-amine], the values for the IC50 (in assay [1] (setting [2]); in the assay on LAD2 cells (setting [3])) were 8 nM and 186 nM, respectively.

Turning to `O=C(Nc1cc(Nc2cnccn2)nc(-c2ccnc(N3CCNCC3)c2)c1)c1ccc(C(=O)O)nc1` [Example 96, 5-({[2'-Piperazin-1-yl-6-(pyrazin-2-ylamino)-2,4'-bipyridin-4-yl]amino}carbonyl) pyridine-2-Carboxylic acid], the IC50 in assay [1] was determined as 10 nM; with LAD2 cells (setting [3]), 200 nM.

Regarding `CC(=O)Nc1cc(Nc2cnccn2)nc(-c2ccnc(N3CCNCC3)c2)c1` [Example 101, N-[2'-Piperazin-1-yl-6-(pyrazin-2-ylamino)-2,4'-bipyridin-4-yl]acetamide], the values for the IC50 (in assay [1] (setting [2]); with LAD2 cells (setting [3])) were 8 nM and 117 nM, respectively.

On to `CNc1cc(Nc2cnccn2)nc(-c2ccnc(N3CCNCC3)c2)c1` [Example 128, N^4-Methyl-2'-(piperazin-1-yl)-N^6-(pyrazin-2-yl)-2,4'-bipyridine-4,6-diamine], for which the IC50 in assay [1] came out at 4.1 nM; with LAD2 cells (setting [3]) it was 190 nM.

In the case of `COC(=O)c1cccc(C(=O)Nc2cc(Nc3cnccn3)nc(-c3ccnc(N4CCNCC4)c3)c2)c1` [Example 87, Methyl 3-({[2'-piperazin-1-yl-6-(pyrazin-2-ylamino)-2,4'-bipyridin-4-yl]amino}carbonyl)benzoate], the figures for the IC50 (in assay [1] (setting [2]); with LAD2 cells (setting [3])) were 6 nM and 330 nM, respectively.

Consider `O=C(Cc1cccnc1)Nc1cc(Nc2cnccn2)nc(-c2ccnc(N3CCNCC3)c2)c1` [Example 89, N-[2'-Piperazin-1-yl-6-(pyrazin-2-ylamino)-2,4'-bipyridin-4-yl]-2-pyridin-3-ylacetamide], for which the IC50 in assay [1] was determined as 4 nM; with LAD2 cells (setting [3]), 350 nM.

As for `FC(F)(F)c1ccnc(Nc2cccc(-c3cccc(N4CCNCC4)c3)n2)c1` [Example 23, N-[6-(3-Piperazin-1-ylphenyl)pyridin-2-yl]-4-(trifluoromethyl)pyridin-2-amine], the IC50 was found to be 0.56 nM in assay [1] and 331 nM in the assay with LAD2 cells (setting [3]).

As for `O=C(Nc1cc(Nc2cnccn2)nc(-c2ccnc(N3CCNCC3)c2)c1)c1ccc2c(c1)OCO2` [Example 77, N-[2'-Piperazin-1-yl-6-(pyrazin-2-ylamino)-2,4' -bipyridin-4-yl]-1,3-benzodioxole-5-Carboxamide], the IC50 in assay [1] (setting [2]) worked out at 9 nM; with LAD2 cells (setting [3]), 230 nM.

On to `Nc1cc(Nc2cnccn2)nc(-c2ccnc(N3CCNCC3)c2)c1` [Example 127, 2'-Piperazin-1-yl-N^6-pyrazin-2-yl-2,4'-bipyridine-4,6-diamine], for which the values for the IC50 (in assay [1]; with LAD2 cells (setting [3])) were 4 nM and 118 nM, respectively.

Turning to `O=C(Nc1cc(Nc2cnccn2)nc(-c2ccnc(N3CCNCC3)c2)c1)c1cccc(C(F)(F)F)c1` [Example 76, N-[2'-Piperazin-1-yl-6-(pyrazin-2-ylamino)-2,4'-bipyridin-4-yl]-3-(trifluoromethyl) benzamide], the figures for the IC50 (in assay [1] (setting [2]); in the assay on LAD2 cells (setting [3])) were 7 nM and 310 nM, respectively.

Consider `FC(F)(F)c1ccnc(Nc2cccc(-c3ccnc(N4CCNCC4)c3)n2)c1` [Example 26, 2'-Piperazin-1-y)-N-[4-(trifluoromethy))pyridin-2-y)]-2,4'-bipyridin-6-amine], for which the IC50 in assay [1] was 1.8 nM; in the assay on LAD2 cells (setting [3]), 206 nM.

With `C1=C(c2cccc(-c3cccc(Nc4cnccn4)n3)c2)CCNC1` [Example 29, N-{6-[3-(1,2,3,6-Tetrahydropyridin-4-y))pheny)]pyridin-2-y)}pyrazin-2-amine], the IC50 in assay [1] (setting [2]) came out at 20 nM; in the assay on LAD2 cells (setting [3]), 183 nM.

Take `OC1CCN(c2cc(Nc3cnccn3)nc(-c3ccnc(N4CCNCC4)c3)c2)CC1` [Example 130, 1-(2'-(Piperazin-1-yl)-6-(pyrazin-2-ylamino)-2,4'-bipyridin-4-yl)piperidin-4-ol]: the values for the IC50 (in assay [1] (setting [2]); in the assay with LAD2 cells (setting [3])) were 8.2 nM and 400 nM, respectively.

For the compound `FC(F)(F)c1ccnc(Nc2cccc(-c3cccc(C4CCNCC4)c3)n2)c1` [Example 22, N-[6-(3-Piperidin-4-ylphenyl)pyridin-2-yl]-4-(trifluoromethyl)pyridin-2-amine], the IC50 in assay [1] (setting [2]) was 1.18 nM; in the assay on LAD2 cells (setting [3]), 368 nM.

`Nc1cc(Nc2cnccn2)nc(-c2cncc(N3CCNCC3)c2)c1` [Example 138]: the IC50 is 2.5 nM in assay [1] (read-out: Syk IC50, Syk 1nM final, poly-GT 100 µg/ml, [γ-33P] ATP, 40 min at room temperature) and 150 nM in the assay on LAD2 cells (LAD2, 0.5 h, read-out: LAD2IC50(nM)).

For the compound `COc1ccc(C(=O)Nc2cc(Nc3cnccn3)nc(-c3ccnc(N4CCNCC4)c3)c2)cc1` [Example 81, 4-Methoxy-N-[2'-piperazin-1-yl-6-(pyrazin-2-ylamino)-2,4'-bipyridin-4-yl]benzamide], the values for the IC50 (in assay [1] (setting [2]); with LAD2 cells (setting [3])) were 12 nM and 430 nM, respectively.
